The values that follow come from patent US20090196924A1 (priority 2008, published 2009).

For data set [1] the following is noted: 25° C., cited from earlier work.
The nature of data set [2]: Solubility of lamotrigine. It is filed as physicochemical. Particulars: all media; slightly pH-dependent, highest in 0.1N HCl.
The conditions of data set [3]: concomitant valproate (reduces hepatic clearance of lamotrigine), for a given dose; cited from earlier work.

Each structure is given as a SMILES string. Converted amounts (≈) assume the structure as drawn.

As to `Nc1nnc(-c2cccc(Cl)c2Cl)c(N)n1` [Lamotrigine, 3,5-diamino-6-(2,3-dichlorophenyl)-as-triazine], in data set [1] (0.1 M HCl), the “solubility in 0.1 M HCl” value is 4100 µg/mL (≈ 16 mM). Further, the solubility in water in data set [1] (water) was 170 µg/mL (≈ 0.664 mM). Moreover, the solubility of lamotrigine entry in data set [2] is “moderately high in all media”. For the same molecule, the “increase of plasma concentrations of the drug” value in data set [3] was “approximately two-fold”.
